# Measured values: ChEMBL document CHEMBL1629482, “Synthesis and antitubercular activity of new mefloquine-oxazolidine derivatives” (Eur J Med Chem, 2010)
# Test system: Mycobacterium tuberculosis
# Test: Antitubercular activity against Mycobacterium tuberculosis
# Type: functional
# Conditions: not given
row,SMILES,MIC [µM]
1,OC(c1cc(C(F)(F)F)nc2c(C(F)(F)F)cccc12)C1CCCCN1 (stereo unspecified) [MEFLOQUINE],21.1

# Test system: not listed separately
# Test: Cytotoxicity against mouse macrophage assessed as cell viability at 25 uM after 18 hrs by MTT assay
# Type: cell-based
# Conditions: mouse macrophages, read-out: Activity
row,SMILES,"viability at 18 h, 25 µM [%]"
1,O=[N+]([O-])c1cccc(C2O[C@@H](c3cc(C(F)(F)F)nc4c(C(F)(F)F)cccc34)[C@H]3CCCCN23)c1 (stereo partly specified),100
2,FC(F)(F)c1cc([C@H]2O[C@@H](c3ccccc3)N3CCCC[C@@H]23)c2cccc(C(F)(F)F)c2n1,96
3,O=[N+]([O-])c1ccccc1C1O[C@@H](c2cc(C(F)(F)F)nc3c(C(F)(F)F)cccc23)[C@H]2CCCCN12 (mixture of isomers),100
4,COc1cccc(C2O[C@@H](c3cc(C(F)(F)F)nc4c(C(F)(F)F)cccc34)[C@H]3CCCCN23)c1 (mixture of isomers),80
5,COc1ccc(C2O[C@@H](c3cc(C(F)(F)F)nc4c(C(F)(F)F)cccc34)[C@H]3CCCCN23)cc1 (mixture of isomers),100
6,O=[N+]([O-])c1ccc(C2O[C@@H](c3cc(C(F)(F)F)nc4c(C(F)(F)F)cccc34)[C@H]3CCCCN23)cc1 (mixture of isomers),100
7,FC(F)(F)c1cc([C@@H]2OC(c3ccccc3Cl)N3CCCC[C@H]23)c2cccc(C(F)(F)F)c2n1 (mixture of isomers),100
8,FC(F)(F)c1cc([C@@H]2OC(c3cccc(Cl)c3)N3CCCC[C@H]23)c2cccc(C(F)(F)F)c2n1 (mixture of isomers),100
9,FC(F)(F)c1cc([C@@H]2OC(c3ccc(Cl)cc3)N3CCCC[C@H]23)c2cccc(C(F)(F)F)c2n1 (mixture of isomers),100
10,FC(F)(F)c1cc([C@@H]2OC(c3cccc(Br)c3)N3CCCC[C@H]23)c2cccc(C(F)(F)F)c2n1 (mixture of isomers),85
11,FC(F)(F)c1cc([C@@H]2OC(c3ccc(Br)cc3)N3CCCC[C@H]23)c2cccc(C(F)(F)F)c2n1 (mixture of isomers),100
12,Fc1ccccc1C1O[C@@H](c2cc(C(F)(F)F)nc3c(C(F)(F)F)cccc23)[C@H]2CCCCN12 (mixture of isomers),100
13,Fc1ccc(C2O[C@@H](c3cc(C(F)(F)F)nc4c(C(F)(F)F)cccc34)[C@H]3CCCCN23)cc1 (mixture of isomers),84
14,Oc1ccccc1C1O[C@@H](c2cc(C(F)(F)F)nc3c(C(F)(F)F)cccc23)[C@H]2CCCCN12 (mixture of isomers),85
15,Oc1ccc(C2O[C@@H](c3cc(C(F)(F)F)nc4c(C(F)(F)F)cccc34)[C@H]3CCCCN23)cc1 (mixture of isomers),80
16,COc1ccccc1C1O[C@@H](c2cc(C(F)(F)F)nc3c(C(F)(F)F)cccc23)[C@H]2CCCCN12 (mixture of isomers),100
17,OC(c1cc(C(F)(F)F)nc2c(C(F)(F)F)cccc12)C1CCCCN1 (stereo unspecified) [MEFLOQUINE],77

# Test system: not listed separately
# Test: Cytotoxicity against mouse macrophage assessed as cell viability at 50 uM after 18 hrs by MTT assay
# Type: cell-based
# Conditions: mouse macrophages, read-out: Activity
row,SMILES,"viability at 18 h, 50 µM [%]"
1,O=[N+]([O-])c1cccc(C2O[C@@H](c3cc(C(F)(F)F)nc4c(C(F)(F)F)cccc34)[C@H]3CCCCN23)c1 (stereo partly specified),100
2,FC(F)(F)c1cc([C@H]2O[C@@H](c3ccccc3)N3CCCC[C@@H]23)c2cccc(C(F)(F)F)c2n1,95
3,O=[N+]([O-])c1ccccc1C1O[C@@H](c2cc(C(F)(F)F)nc3c(C(F)(F)F)cccc23)[C@H]2CCCCN12 (mixture of isomers),100
4,COc1cccc(C2O[C@@H](c3cc(C(F)(F)F)nc4c(C(F)(F)F)cccc34)[C@H]3CCCCN23)c1 (mixture of isomers),80
5,COc1ccc(C2O[C@@H](c3cc(C(F)(F)F)nc4c(C(F)(F)F)cccc34)[C@H]3CCCCN23)cc1 (mixture of isomers),100
6,O=[N+]([O-])c1ccc(C2O[C@@H](c3cc(C(F)(F)F)nc4c(C(F)(F)F)cccc34)[C@H]3CCCCN23)cc1 (mixture of isomers),100
7,FC(F)(F)c1cc([C@@H]2OC(c3ccccc3Cl)N3CCCC[C@H]23)c2cccc(C(F)(F)F)c2n1 (mixture of isomers),100
8,FC(F)(F)c1cc([C@@H]2OC(c3cccc(Cl)c3)N3CCCC[C@H]23)c2cccc(C(F)(F)F)c2n1 (mixture of isomers),90
9,FC(F)(F)c1cc([C@@H]2OC(c3ccc(Cl)cc3)N3CCCC[C@H]23)c2cccc(C(F)(F)F)c2n1 (mixture of isomers),100
10,FC(F)(F)c1cc([C@@H]2OC(c3cccc(Br)c3)N3CCCC[C@H]23)c2cccc(C(F)(F)F)c2n1 (mixture of isomers),85
11,FC(F)(F)c1cc([C@@H]2OC(c3ccc(Br)cc3)N3CCCC[C@H]23)c2cccc(C(F)(F)F)c2n1 (mixture of isomers),100
12,Fc1ccccc1C1O[C@@H](c2cc(C(F)(F)F)nc3c(C(F)(F)F)cccc23)[C@H]2CCCCN12 (mixture of isomers),100
13,Fc1ccc(C2O[C@@H](c3cc(C(F)(F)F)nc4c(C(F)(F)F)cccc34)[C@H]3CCCCN23)cc1 (mixture of isomers),82
14,Oc1ccccc1C1O[C@@H](c2cc(C(F)(F)F)nc3c(C(F)(F)F)cccc23)[C@H]2CCCCN12 (mixture of isomers),85
15,Oc1ccc(C2O[C@@H](c3cc(C(F)(F)F)nc4c(C(F)(F)F)cccc34)[C@H]3CCCCN23)cc1 (mixture of isomers),80
16,COc1ccccc1C1O[C@@H](c2cc(C(F)(F)F)nc3c(C(F)(F)F)cccc23)[C@H]2CCCCN12 (mixture of isomers),100
17,OC(c1cc(C(F)(F)F)nc2c(C(F)(F)F)cccc12)C1CCCCN1 (stereo unspecified) [MEFLOQUINE],76

# Test system: Mycobacterium tuberculosis
# Test: Antitubercular activity against Mycobacterium tuberculosis ATCC 27294 by Alamar blue assay
# Type: functional
# Conditions: not given
row,SMILES,MIC [µM]
1,O=[N+]([O-])c1cccc(C2O[C@@H](c3cc(C(F)(F)F)nc4c(C(F)(F)F)cccc34)[C@H]3CCCCN23)c1 (stereo partly specified),> 250
2,FC(F)(F)c1cc([C@H]2O[C@@H](c3ccccc3)N3CCCC[C@@H]23)c2cccc(C(F)(F)F)c2n1,26.8
3,O=[N+]([O-])c1ccccc1C1O[C@@H](c2cc(C(F)(F)F)nc3c(C(F)(F)F)cccc23)[C@H]2CCCCN12 (mixture of isomers),> 250
4,COc1cccc(C2O[C@@H](c3cc(C(F)(F)F)nc4c(C(F)(F)F)cccc34)[C@H]3CCCCN23)c1 (mixture of isomers),25.2
5,COc1ccc(C2O[C@@H](c3cc(C(F)(F)F)nc4c(C(F)(F)F)cccc34)[C@H]3CCCCN23)cc1 (mixture of isomers),25.2
6,O=[N+]([O-])c1ccc(C2O[C@@H](c3cc(C(F)(F)F)nc4c(C(F)(F)F)cccc34)[C@H]3CCCCN23)cc1 (mixture of isomers),> 250
7,FC(F)(F)c1cc([C@@H]2OC(c3ccccc3Cl)N3CCCC[C@H]23)c2cccc(C(F)(F)F)c2n1 (mixture of isomers),> 250
8,FC(F)(F)c1cc([C@@H]2OC(c3cccc(Cl)c3)N3CCCC[C@H]23)c2cccc(C(F)(F)F)c2n1 (mixture of isomers),> 250
9,FC(F)(F)c1cc([C@@H]2OC(c3ccc(Cl)cc3)N3CCCC[C@H]23)c2cccc(C(F)(F)F)c2n1 (mixture of isomers),> 250
10,FC(F)(F)c1cc([C@@H]2OC(c3cccc(Br)c3)N3CCCC[C@H]23)c2cccc(C(F)(F)F)c2n1 (mixture of isomers),> 250
11,FC(F)(F)c1cc([C@@H]2OC(c3ccc(Br)cc3)N3CCCC[C@H]23)c2cccc(C(F)(F)F)c2n1 (mixture of isomers),> 250
12,Fc1ccccc1C1O[C@@H](c2cc(C(F)(F)F)nc3c(C(F)(F)F)cccc23)[C@H]2CCCCN12 (mixture of isomers),> 250
13,Fc1ccc(C2O[C@@H](c3cc(C(F)(F)F)nc4c(C(F)(F)F)cccc34)[C@H]3CCCCN23)cc1 (mixture of isomers),25.8
14,Oc1ccccc1C1O[C@@H](c2cc(C(F)(F)F)nc3c(C(F)(F)F)cccc23)[C@H]2CCCCN12 (mixture of isomers),25.9
15,Oc1ccc(C2O[C@@H](c3cc(C(F)(F)F)nc4c(C(F)(F)F)cccc34)[C@H]3CCCCN23)cc1 (mixture of isomers),25.9
16,COc1ccccc1C1O[C@@H](c2cc(C(F)(F)F)nc3c(C(F)(F)F)cccc23)[C@H]2CCCCN12 (mixture of isomers),12.6
17,CC[C@@H](CO)NCCN[C@@H](CC)CO [ETHAMBUTOL],15.9
18,OC(c1cc(C(F)(F)F)nc2c(C(F)(F)F)cccc12)C1CCCCN1 (stereo unspecified) [MEFLOQUINE],33

# Test system: not listed separately
# Test: Cytotoxicity against mouse macrophage assessed as cell viability at 12.5 uM after 18 hrs by MTT assay
# Type: cell-based
# Conditions: mouse macrophages, read-out: Activity
row,SMILES,"viability at 18 h, 12.5 µM [%]"
1,O=[N+]([O-])c1cccc(C2O[C@@H](c3cc(C(F)(F)F)nc4c(C(F)(F)F)cccc34)[C@H]3CCCCN23)c1 (stereo partly specified),100
2,FC(F)(F)c1cc([C@H]2O[C@@H](c3ccccc3)N3CCCC[C@@H]23)c2cccc(C(F)(F)F)c2n1,100
3,O=[N+]([O-])c1ccccc1C1O[C@@H](c2cc(C(F)(F)F)nc3c(C(F)(F)F)cccc23)[C@H]2CCCCN12 (mixture of isomers),100
4,COc1cccc(C2O[C@@H](c3cc(C(F)(F)F)nc4c(C(F)(F)F)cccc34)[C@H]3CCCCN23)c1 (mixture of isomers),100
5,COc1ccc(C2O[C@@H](c3cc(C(F)(F)F)nc4c(C(F)(F)F)cccc34)[C@H]3CCCCN23)cc1 (mixture of isomers),100
6,O=[N+]([O-])c1ccc(C2O[C@@H](c3cc(C(F)(F)F)nc4c(C(F)(F)F)cccc34)[C@H]3CCCCN23)cc1 (mixture of isomers),100
7,FC(F)(F)c1cc([C@@H]2OC(c3ccccc3Cl)N3CCCC[C@H]23)c2cccc(C(F)(F)F)c2n1 (mixture of isomers),100
8,FC(F)(F)c1cc([C@@H]2OC(c3cccc(Cl)c3)N3CCCC[C@H]23)c2cccc(C(F)(F)F)c2n1 (mixture of isomers),100
9,FC(F)(F)c1cc([C@@H]2OC(c3ccc(Cl)cc3)N3CCCC[C@H]23)c2cccc(C(F)(F)F)c2n1 (mixture of isomers),100
10,FC(F)(F)c1cc([C@@H]2OC(c3cccc(Br)c3)N3CCCC[C@H]23)c2cccc(C(F)(F)F)c2n1 (mixture of isomers),100
11,FC(F)(F)c1cc([C@@H]2OC(c3ccc(Br)cc3)N3CCCC[C@H]23)c2cccc(C(F)(F)F)c2n1 (mixture of isomers),100
12,Fc1ccccc1C1O[C@@H](c2cc(C(F)(F)F)nc3c(C(F)(F)F)cccc23)[C@H]2CCCCN12 (mixture of isomers),100
13,Fc1ccc(C2O[C@@H](c3cc(C(F)(F)F)nc4c(C(F)(F)F)cccc34)[C@H]3CCCCN23)cc1 (mixture of isomers),93
14,Oc1ccccc1C1O[C@@H](c2cc(C(F)(F)F)nc3c(C(F)(F)F)cccc23)[C@H]2CCCCN12 (mixture of isomers),100
15,Oc1ccc(C2O[C@@H](c3cc(C(F)(F)F)nc4c(C(F)(F)F)cccc34)[C@H]3CCCCN23)cc1 (mixture of isomers),100
16,COc1ccccc1C1O[C@@H](c2cc(C(F)(F)F)nc3c(C(F)(F)F)cccc23)[C@H]2CCCCN12 (mixture of isomers),100
17,OC(c1cc(C(F)(F)F)nc2c(C(F)(F)F)cccc12)C1CCCCN1 (stereo unspecified) [MEFLOQUINE],81

# Test system: Mycobacterium avium
# Test: Antitubercular activity against Mycobacterium avium by Broth micro dilution method
# Type: functional
# Conditions: not given
row,SMILES,MIC [µM]
1,OC(c1cc(C(F)(F)F)nc2c(C(F)(F)F)cccc12)C1CCCCN1 (stereo unspecified) [MEFLOQUINE],21.1
